Experiment: molar heat capacity at constant pressure
Details: 101.33 kPa, Crystal

[Gd+3].[Gd+3].[O-2].[O-2].[O-2] [gadolinium sesquioxide]
Details | molar heat capacity at constant pressure [J/K/mol]
5.34 K | 4.24
5.84 K | 5.88
6.65 K | 6.66
8.48 K | 4.7
10.16 K | 3.95
11.17 K | 3.51
11.58 K | 3.33
13.24 K | 3.19
13.72 K | 3.18
14.69 K | 3.17
15.56 K | 3.2
15.84 K | 3.18
16.98 K | 3.47
17.06 K | 3.5
18.14 K | 3.76
18.46 K | 3.8
19.29 K | 4.28
19.86 K | 4.28
20 K | 4.32
20.63 K | 4.51
21.24 K | 4.73
21.97 K | 5.08
22.65 K | 5.27
23.31 K | 5.65
23.91 K | 5.87
24.66 K | 6.36
25 K | 6.55
25.22 K | 6.67
26.02 K | 7.26
26.08 K | 7.21
26.79 K | 7.55
27.33 K | 7.65
27.99 K | 7.92
28.5 K | 8.29
29.64 K | 8.93
30 K | 9.163
31.19 K | 9.927
32.73 K | 10.96
34.3 K | 11.95
35 K | 12.42
35.9 K | 13.02
37.53 K | 13.85
39.19 K | 14.85
40 K | 15.35
40.87 K | 15.9
42.55 K | 17.06
44.25 K | 18.21
45 K | 18.7
45.96 K | 19.33
47.7 K | 20.45
49.45 K | 21.55
50 K | 21.9
51.21 K | 22.67
52.99 K | 23.75
54.78 K | 24.86
56.58 K | 26
58.39 K | 27.1
60 K | 28.03
60.22 K | 28.16
62.05 K | 29.26
63.89 K | 30.33
65.75 K | 31.37
67.61 K | 32.46
69.47 K | 33.54
70 K | 33.85
71.35 K | 34.62
73.23 K | 35.69
75.12 K | 36.68
77.01 K | 37.74
78.91 K | 38.79
80 K | 39.37
80.81 K | 39.79
82.72 K | 40.83
83.39 K | 41.24
84.63 K | 41.9
85.99 K | 42.64
86.55 K | 42.9
88.47 K | 43.84
88.8 K | 44.12
90 K | 44.63
90.39 K | 44.82
91.62 K | 45.57
92.32 K | 45.88
93.14 K | 46.35
93.67 K | 46.53
94.25 K | 46.87
94.44 K | 46.97
94.91 K | 47.23
96.18 K | 47.87
96.86 K | 48.18
97.27 K | 48.4
98.12 K | 48.9
98.79 K | 49.39
100 K | 50.12
100.06 K | 50.15
100.11 K | 50.21
100.72 K | 50.42
102.65 K | 51.08
102.97 K | 51.17
104.58 K | 51.98
105.83 K | 52.6
106.52 K | 53
108.46 K | 54.02
108.7 K | 54.13
110.4 K | 54.87
111.58 K | 55.27
112.35 K | 55.75
114.3 K | 56.56
114.46 K | 56.66
116.25 K | 57.42
117.35 K | 57.9
118.2 K | 58.29
120 K | 58.58
120.15 K | 58.66
120.24 K | 58.72
122.11 K | 59.91
123.15 K | 60.56
124.07 K | 60.93
126.02 K | 61.79
126.04 K | 61.82
127.98 K | 62.72
128.94 K | 63.08
129.95 K | 63.54
131.83 K | 64.33
131.91 K | 64.31
133.87 K | 65.17
134.73 K | 65.5
135.84 K | 65.98
137.64 K | 66.69
137.81 K | 66.76
139.77 K | 67.58
140 K | 67.66
140.55 K | 67.86
141.74 K | 68.33
143.47 K | 69
143.71 K | 69.08
145.68 K | 69.88
146.39 K | 70.15
147.65 K | 70.61
149.31 K | 71.26
149.62 K | 71.38
151.6 K | 72.1
152.23 K | 72.33
153.57 K | 72.82
155.16 K | 73.39
155.55 K | 73.55
157.52 K | 74.24
158.09 K | 74.43
159.5 K | 74.94
160 K | 75.12
161.02 K | 75.46
161.47 K | 75.6
163.45 K | 76.3
163.95 K | 76.42
165.43 K | 76.95
166.88 K | 77.42
167.41 K | 77.62
169.38 K | 78.25
169.82 K | 78.4
171.36 K | 78.94
172.76 K | 79.32
173.34 K | 79.5
175.32 K | 80.12
175.7 K | 80.25
177.31 K | 80.7
178.65 K | 81.16
179.29 K | 81.37
180 K | 81.58
181.27 K | 81.94
181.59 K | 82.04
183.25 K | 82.48
184.54 K | 82.86
185.23 K | 83.08
187.21 K | 83.64
187.49 K | 83.73
189.2 K | 84.23
190.44 K | 84.56
191.18 K | 84.81
193.16 K | 85.14
193.39 K | 85.31
195.15 K | 85.81
196.34 K | 86.05
197.13 K | 86.3
199.11 K | 86.89
199.29 K | 86.89
200 K | 87.05
201.1 K | 87.39
202.24 K | 87.63
203.08 K | 87.88
205.07 K | 88.38
205.19 K | 88.38
207.05 K | 88.8
208.15 K | 89.05
209.04 K | 89.3
211.03 K | 89.8
211.11 K | 89.8
213.01 K | 90.21
214.07 K | 90.46
215 K | 90.71
216.99 K | 91.13
217.03 K | 91.13
218.97 K | 91.54
219.98 K | 91.79
220 K | 91.79
220.96 K | 92.04
222.94 K | 92.46
222.95 K | 92.46
224.93 K | 92.87
225.89 K | 93.04
226.92 K | 93.29
228.85 K | 93.7
228.91 K | 93.62
230.9 K | 94.12
231.81 K | 94.2
232.89 K | 94.45
234.77 K | 94.87
234.87 K | 94.87
236.86 K | 95.28
237.72 K | 95.45
238.17 K | 95.62
238.8 K | 95.53
240 K | 95.87
240.35 K | 95.95
240.69 K | 95.95
242.83 K | 96.36
243.65 K | 96.53
245.3 K | 96.78
246.61 K | 97.03
247.77 K | 97.28
249.58 K | 97.53
250.25 K | 97.61
252.54 K | 98.11
252.72 K | 98.11
255.2 K | 98.19
255.52 K | 98.28
257.67 K | 98.78
258.49 K | 98.86
260 K | 99.11
260.15 K | 99.19
261.46 K | 99.44
262.63 K | 99.61
264.43 K | 99.86
265.1 K | 100
267.4 K | 100.4
267.57 K | 100.4
270.05 K | 100.8
270.36 K | 100.9
272.53 K | 101.2
273.33 K | 101.3
275.01 K | 101.6
276.31 K | 101.8
277.49 K | 102
279.28 K | 102.3
279.96 K | 102.3
280 K | 102.3
282.25 K | 102.7
282.44 K | 102.6
284.92 K | 103
285.23 K | 103.1
287.4 K | 103.4
288.2 K | 103.5
289.88 K | 103.8
291.17 K | 104
292.35 K | 104.1
294.15 K | 104.4
294.83 K | 104.5
297.13 K | 105
297.32 K | 105
298.15 K | 105.1
299.8 K | 105.2
300 K | 105.2
300.11 K | 105.2
302.28 K | 105.4
303.09 K | 105.6
304.77 K | 105.6
304.91 K | 105.8
306.07 K | 106
307.26 K | 106
307.89 K | 106.2
309.06 K | 106.4
309.74 K | 106.4
310.86 K | 106.6
312.04 K | 106.7
312.23 K | 106.7
313.84 K | 106.8
314.72 K | 106.9
315.03 K | 107
316.82 K | 107.2
317.21 K | 107.2
318.02 K | 107.3
319.7 K | 107.4
319.8 K | 107.6
320 K | 107.6
321.01 K | 107.7
322.19 K | 107.8
322.77 K | 108
324 K | 108.1
324.68 K | 108.2
325.75 K | 108.3
326.99 K | 108.4
327.18 K | 108.3
329.67 K | 108.6
331.72 K | 108.9
334.69 K | 109.2
337.67 K | 109.5
340 K | 109.7
340.65 K | 109.8
343.63 K | 110
346.62 K | 110.3
349.6 K | 110.6
352.59 K | 110.8
355.58 K | 111.1
358.57 K | 111.4
360 K | 111.5
361.56 K | 111.6
364.55 K | 111.9
367.55 K | 112
370.55 K | 112.2
373.55 K | 112.5
376.55 K | 112.7
379.55 K | 113
380 K | 113
382.56 K | 113.2
385.56 K | 113.4
388.57 K | 113.6
391.59 K | 113.8
394.6 K | 113.9
397.62 K | 114
400.65 K | 114.2
